In patent US20160304957A1, “TREATMENT AND MODULATION OF GENE EXPRESSION AND SKIN AGING” (DSM NUTRITIONAL PRODUCTS LTD., priority 2006, published 2016):

System: HaCaT human keratinocytes
Assay: Affymetrix GeneChip microarray, transcriptional response to β-carotene and/or UVA
Format: cell-based
Settings: β-carotene 1.5 μM
Protocol: The cell culture experiments were carried out as described. Briefly, a subclone of passage 65 HaCaT keratinocytes, selected for differentiation capacity, was used at passages 16 to 23 after subcloning. 2×10^5 cells were seeded per 60 millimeter dish. Starting the following day, the cells were pretreated for 2 days with β-carotene at 1.5 μM, a typical concentration in human plasma after moderate dietary supplementation)
β-carotene-containing medium was prepared as follows. Fresh all-E-β-carotene (DSM Nutritional Products, Kaiseraugst, Switzerland) stock solution in THF (containing 0.025% BHT; Fluka Chemie A G, Switzerland) was diluted 1:2 with ethanol and added to cell culture medium to a final concentration of 1.5 μM β-carotene. The solvent concentration in the medium was 0.5% for all treatments. β-carotene-containing medium was prepared fresh for the daily medium changes.
On day 3 of the experiment, the cells were irradiated with a Hönle sun lamp Sol 500 (270 kJ/m^2; Dr. Hönle, Germany).
Five independent, factorially designed cell irradiation experiments were analyzed by microarray hybridization. For each experiment, one chip was hybridized per treatment condition. GeneChip® analysis was done as described in [132], which is incorporated by reference, as if recited in full herein. Gene regulation by β-carotene and/or UVA was calculated relative to placebo.
Changes in gene expression were included in further analysis only if the change factor was […], and if unpaired t-tests yielded p values≦0.05. Upregulations by a […] are labeled bold, downregulations by a change factor of […] are labeled bold italics. (Table 1) To identify the pathways affected by the treatments functional information on the genes was retrieved from public literature databases.

With `CC1=C(/C=C/C(C)=C/C=C/C(C)=C/C=C/C=C(C)/C=C/C=C(C)/C=C/C2=C(C)CCCC2(C)C)C(C)(C)CCC1` [β-carotene, All-E-β-carotene] the “UVA induction of MMP-10, microarray” value (5 hours after UVA, UVA alone 4.6 fold) was 3.2 fold, the “5-aminolevulinate synthase (Y00451) change factor” value (unirradiated) was 0.08 and the “AAC11 (U83857) change factor” value (unirradiated) was −0.6. The “AP-2α (M36711) change factor” value (unirradiated) was −0.02, the “ATF4; activating transcription factor 4 (AL022312) change factor” value (unirradiated) was 0.11 and the “BAXγ (L22475) change factor” value (unirradiated) was 0.8. The “BAXδ (U19599) change factor” value (unirradiated) was 0.6, the “BMP2a; bone morphogenetic protein 2a (bmp-2a) (M22489) change factor” value (unirradiated) was −1.2 and the “BPAG1; bullous pemphigoid antigen (M69225) change factor” value (unirradiated) was −0.5. The “BUB1; mitotic checkpoint kinase (AF053305) change factor” value (unirradiated) was −0.5, the “C-FOS (V01512) change factor” value (unirradiated) was −0.14 and the “C-FOS (V01512, second entry) change factor” value (unirradiated) was −0.16. For the same molecule, the “C-JUN (J04111) change factor” value (unirradiated) was −0.06, the “C/EBPβ; NF-IL6 (X52560) change factor” value (unirradiated) was −0.28 and the “C/EBPγ (U20240) change factor” value (unirradiated) was −0.09. For the same molecule, the “C/EBPδ; NF-IL6-β (M83667) change factor” value (unirradiated) was 0.04, the “CDK activating kinase (X77743) change factor” value (unirradiated) was −0.01 and the “CDK-inhibitor p57KIP2 (KIP2) mrna (U22398) change factor” value (unirradiated) was −0.22. For the same molecule, the “CENP-A; centromere protein-A (U14518) change factor” value (unirradiated) was −0.13, the “CENP-E; centromere protein-E (Z15005) change factor” value (unirradiated) was −0.37 and the “CENP-F; mitosin (U30872) change factor” value (unirradiated) was −0.42. The “CEP110; centriole associated protein (AF083322) change factor” value (unirradiated) was 0.15, the “CIP2; CDKN3 (L25876) change factor” value (unirradiated) was −0.18 and the “CLARP; CFLAR, alternatively spliced (AF005775) change factor” value (unirradiated) was −0.09. The “COUP-TF II; ARP1; apoA1 regulatory protein (M64497) change factor” value (unirradiated) was 0.33, the “COX-2, cyclooxygenase-2 (U04636) change factor” value (unirradiated) was −1.2 and the “CRADD; death domain containing protein (U84388) change factor” value (unirradiated) was −0.25. For the same molecule, the “DKK-1; dickkopf-1 (AB020315) change factor” value (unirradiated) was −0.3, the “DNA ligase III (X84740) change factor” value (unirradiated) was −0.5 and the “DNA polymerase α-subunit (X06745) change factor” value (unirradiated) was −0.43. For the same molecule, the “DNA primase (subunit p58) (X74331) change factor” value (unirradiated) was −0.16, the “DNA-PK, catalytic subunit (U47077) change factor” value (unirradiated) was −0.7 and the “DSC2; desmocollin type 2a and 2b (X56807) change factor” value (unirradiated) was −1.1. The “DUSP5 (U15932) change factor” value (unirradiated) was −0.15, the “DUSP7 (X93921) change factor” value (unirradiated) was −0.46 and the “EGFR; precursor of epidermal growth factor receptor (X00588) change factor” value (unirradiated) was −0.6. The “ENDOGL-2 (AB020735) change factor” value (unirradiated) was 0.8, the “ERBB3 precursor; similar to (H06628) change factor” value (unirradiated) was 0 and the “ERCC5; excision repair protein (L20046) change factor” value (unirradiated) was −0.48. For the same molecule, the “ERF-2 (X78992) change factor” value (unirradiated) was 0.31, the “FGFR2; FGF receptor 2 (M87770) change factor” value (unirradiated) was 0.08 and the “FGFR3; FGF receptor (M64347) change factor” value (unirradiated) was −1.1. The “FRA-1 (X16707) change factor” value (unirradiated) was 0.14, the “FRA-2 (X16706) change factor” value (unirradiated) was −0.7 and the “GADD34 (U83981) change factor” value (unirradiated) was −0.11. For the same molecule, the “GADD153 (S62138) change factor” value (unirradiated) was −0.45, the “GDF-1; growth/differentiation factor 1 (gdf-1) (M62302) change factor” value (unirradiated) was −0.8 and the “GEM (U10550) change factor” value (unirradiated) was −2.6. The “HB-EGF; heparin-binding egf-like growth factor (M60278) change factor” value (unirradiated) was 0.33, the “HER3; epidermal growth factor receptor (her3) (M34309) change factor” value (unirradiated) was −0.28 and the “HER3; epidermal growth factor receptor (her3) (M34309, second entry) change factor” value (unirradiated) was −0.6. The “HM74; PAR1-related (D10923) change factor” value (unirradiated) was 0.18, the “HOXA7 (AJj005814) change factor” value (unirradiated) was −0.43 and the “HOXC6 (S82986) change factor” value (unirradiated) was −0.07. The “HOXD4 (X59373) change factor” value (unirradiated) was −0.5, the “ID1 (X77956) change factor” value (unirradiated) was −0.01 and the “ID1 (X77956, second entry) change factor” value (unirradiated) was −0.11. The “ID3; HEIR1 (AL021154) change factor” value (unirradiated) was −0.43, the “ID-2H (D13891) change factor” value (unirradiated) was −0.7 and the “ID-4 (AL022726) change factor” value (unirradiated) was −0.08. For the same molecule, the “IEX-1 (S81914) change factor” value (unirradiated) was −0.08, the “IFIT1; IFI56 (M24594) change factor” value (unirradiated) was 0 and the “IFIT1; IFI56 (M24594, second entry) change factor” value (unirradiated) was 0.05. The “IFIT2; ISG-54K (M14660) change factor” value (unirradiated) was 0.18, the “IFIT2; ISG-54K (M14660, second entry) change factor” value (unirradiated) was −0.21 and the “IFIT4; IFI60; cig5; RIGG (AF026941) change factor” value (unirradiated) was −0.23. For the same molecule, the “IGF-BP 3; insulin-like growth factor-binding protein-3 gene (M35878) change factor” value (unirradiated) was 0.29, the “IGF-BP 3; insulin-like growth factor-binding protein-3 gene (M35878, second entry) change factor” value (unirradiated) was 0.22 and the “IL6; Interleukin 6; IFNβα2a (X04430) change factor” value (unirradiated) was 0.6. The “IL18; IGIF (IFNγ inducing factor) (D49950) change factor” value (unirradiated) was −0.8, the “ILK; integrin-linked kinase (U40282) change factor” value (unirradiated) was −0.23 and the “IRF-1; interferon regulatory factor 1 (L05072) change factor” value (unirradiated) was 0.16. The “IRF-7b; interferon regulatory factor 7b (U53831) change factor” value (unirradiated) was 0.16, the “IRF-9; p48; ISGF3γ (M97935) change factor” value (unirradiated) was −0.18 and the “JUNB (M29039) change factor” value (unirradiated) was −0.38. For the same molecule, the “JUNB (X51345) change factor” value (unirradiated) was −0.5, the “JUND (X56681) change factor” value (unirradiated) was 0.6 and the “JUND (X56681, second entry) change factor” value (unirradiated) was 0.01. The “JUND (X56681, third entry) change factor” value (unirradiated) was 0, the “K-RAS (M54968) change factor” value (unirradiated) was −0.6 and the “KINESIN-LIKE 2; HSET (AL021366) change factor” value (unirradiated) was −0.34. The “KINESIN-LIKE 2; HSET (D14678) change factor” value (unirradiated) was −0.04, the “KINESIN-LIKE 2; HSET (D14678, second entry) change factor” value (unirradiated) was 0.03 and the “KINESIN-LIKE 5; KNSL5; MKLP-1; mitotic kinesin-like protein-1 (X67155) change factor” value (unirradiated) was −0.15. The “KINESIN-LIKE 6; KNSL6; MCAK; mitotic centromere-associated kinesin (U63743) change factor” value (unirradiated) was −0.15, the “KINESIN_LIKE 1; KNSL1; HKSP; EG5 (U37426) change factor” value (unirradiated) was −0.04 and the “KLF4; EZF (epithelial Zn finger) (U70663) change factor” value (unirradiated) was −0.17. The “KRS-2; stress responsive serine/threonine protein kinase (U60207) change factor” value (unirradiated) was −0.8, the “KU (p70/p80) (M30938) change factor” value (unirradiated) was −0.18 and the “LIM kinase 2 (limk-2) (D45906) change factor” value (unirradiated) was −0.3. The “Lekti (AJ228139) change factor” value (unirradiated) was 0.48, the “MAD3L; mitotic checkpoint kinase (AF053306) change factor” value (unirradiated) was −0.18 and the “MAF-F (AL021977) change factor” value (unirradiated) was −0.26. For the same molecule, the “MAP kinase phosphatase (mkp-2) (U48807) change factor” value (unirradiated) was 0, the “MAPK9; JNK2 (U09759) change factor” value (unirradiated) was −0.36 and the “MAPK14; p38; csaids binding protein (csbp1) (L35263) change factor” value (unirradiated) was −0.38. For the same molecule, the “MAPKK3b; MKK3b (D87116) change factor” value (unirradiated) was −0.06, the “MAPKK MEK5b (U71087) change factor” value (unirradiated) was −0.16 and the “MAPKKK5; ASK1 (U67156) change factor” value (unirradiated) was −0.06. For the same molecule, the “MEIS2 (AF017418) change factor” value (unirradiated) was 0.26, the “MMP10 (X07820) change factor” value (unirradiated) was −1.3 and the “MMP-1 (M13509) change factor” value (unirradiated) was −1.61. The “MMP-3 (X05232) change factor” value (unirradiated) was −0.46.
